In patent publication US20200093814A1, “COMBINATION THERAPY WITH AMIDINE SUBSTITUTED BETA-LACTAM COMPOUNDS AND BETA-LACTAMASE INHIBITORS FOR INFECTIONS WITH ANTIBIOTIC RESISTANT BACTERIAL STRAINS” (AiCuris GmbH & Co. KG, priority 2016, published 2020):

Legend:
Format in all cases: cell-based
Settings in all cases: BLI where combined at 4 μg/mL
E. coli 10 (TEM-20) = test: MIC determination, broth microdilution (CLSI)
Text: (§1) While the compounds of this invention were serially diluted as described above, a constant concentration of the β-lactamase inhibitor of […] was used.

E. coli 121 (CTX-M) = test: MIC determination, broth microdilution (CLSI)
Text: as §1

E. coli 128 (SHV-2a) = test: MIC determination, broth microdilution (CLSI)
Text: as §1

[1] = system: E. coli 17 (CTX-M, CMY-2); test: MIC determination, broth microdilution (CLSI)
Text: as §1

E. coli 72 (CTX-M) = test: MIC determination, broth microdilution (CLSI)
Text: as §1

[2] = system: E. coli DSM 22315 (VEB-1); test: MIC determination, broth microdilution (CLSI)
Text: as §1

[3] = system: E. coli J62-TEM-3 transconjugant (TEM-3); test: MIC determination, broth microdilution (CLSI)
Text: as §1

[4] = system: K. pneumoniae 16/10 (OXA-48, CTX-M-15); test: MIC determination, broth microdilution (CLSI)
Text: as §1

K. pneumoniae 68 (SHV-5) = test: MIC determination, broth microdilution (CLSI)
Text: as §1

K. pneumoniae 79 (CTX-M) = test: MIC determination, broth microdilution (CLSI)
Text: as §1

[5] = system: K. pneumoniae NRZ-15601 (OXA-48, SHV-12); test: MIC determination, broth microdilution (CLSI)
Text: as §1

[6] = system: E. cloacae 58 (SHV-12, de-repressed AmpC)
[7] = system: K. pneumoniae NCTC 13440 (VIM-1, SHV-12); test: MIC determination, broth microdilution (CLSI)
Text: as §1

Compound	MIC (E. coli 10 (TEM-20))	MIC (E. coli 121 (CTX-M))	MIC (E. coli 128 (SHV-2a))	MIC [1]	MIC (E. coli 72 (CTX-M))	MIC [2]	MIC [3]	MIC [4]	MIC (K. pneumoniae 68 (SHV-5))	MIC (K. pneumoniae 79 (CTX-M))	MIC [5]	MIC [6]	MIC [7]
CC(C)(O/N=C(\C(=O)N[C@@H]1C(=O)N2C(C(=O)[O-])=C(C[n+]3ccccc3)CS[C@H]12)c1csc(N)n1)C(=O)O [ceftazidime]	32 µg/mL	32 µg/mL	16 µg/mL	128 µg/mL	32 µg/mL	128 µg/mL	16 µg/mL	128 µg/mL	64 µg/mL	16 µg/mL	64 µg/mL	128 µg/mL	
aztreonam	64 µg/mL	64 µg/mL	8 µg/mL	128 µg/mL	128 µg/mL	64 µg/mL	8 µg/mL		128 µg/mL	32 µg/mL			128 µg/mL
